Experimental data: the supplement of paper PMC4932681
“And” between values parts separate entries of the source, which are not always exact repeats. Equal values may be shown once.

What was measured:
Experiment in all cases: viability inhibition at highest dose (% inhibition); higher = more growth inhibition
BT-474 = conditions: 72 h
Method: (§1)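 Percent inhibition of viability (CellTiter-Glo, 72 h) at the highest tested concentration (D5), normalised to DMSO (0%) and 100 µM benzethonium chloride (100%). Resistant lines and the 'in 1µM tamoxifen' arms were tested in 1 µM 4-OH-tamoxifen.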

BT-474 Tam2 = conditions: 4-OH-tamoxifen in medium 1 µM; 72 h
Method: as §1

T-47D Tam1 = conditions: 4-OH-tamoxifen in medium 1 µM; 72 h
Method: as §1

T-47D Tam2 = conditions: 4-OH-tamoxifen in medium 1 µM; 72 h
Method: as §1

ZR-75-1 = conditions: 72 h
Method: as §1

ZR-75-1 Tam1 = conditions: 4-OH-tamoxifen in medium 1 µM; 72 h
Method: as §1

BT-474 Tam1 = conditions: 4-OH-tamoxifen in medium 1 µM; 72 h
Method: as §1

MCF-7 = conditions: 72 h
Method: as §1

T-47D = conditions: 72 h
Method: as §1

MCF-7 Tam1 = conditions: 4-OH-tamoxifen in medium 1 µM; 72 h
Method: as §1

ZR-75-1 Tam2 = conditions: 4-OH-tamoxifen in medium 1 µM; 72 h
Method: as §1

SMILES | viability inhibition at highest dose (BT-474; 4-OH-tamoxifen in medium 0 µM) | viability inhibition at highest dose (BT-474; 4-OH-tamoxifen in medium 1 µM) | viability inhibition at highest dose (BT-474 Tam2) | viability inhibition at highest dose (T-47D Tam1) | viability inhibition at highest dose (T-47D Tam2) | viability inhibition at highest dose (ZR-75-1; 4-OH-tamoxifen in medium 0 µM) | viability inhibition at highest dose (ZR-75-1; 4-OH-tamoxifen in medium 1 µM) | viability inhibition at highest dose (ZR-75-1 Tam1) | viability inhibition at highest dose (BT-474 Tam1) | viability inhibition at highest dose (MCF-7; 4-OH-tamoxifen in medium 0 µM) | viability inhibition at highest dose (MCF-7; 4-OH-tamoxifen in medium 1 µM) | viability inhibition at highest dose (T-47D; 4-OH-tamoxifen in medium 0 µM) | viability inhibition at highest dose (T-47D; 4-OH-tamoxifen in medium 1 µM) | viability inhibition at highest dose (MCF-7 Tam1) | viability inhibition at highest dose (ZR-75-1 Tam2)
CC(C)n1nc(-c2ccc3oc(N)nc3c2)c2c(N)ncnc21 [INK128] (drug 1000 nM) | 36.7 | 62.9 | 44.1 | 58.8 | 36.7 | 61.2 | 51.9 | 52.7 | 72.6 | 70.3 | 52.4 | 66.7 | 46.4 | 35.9 | 66
COc1cc([C@@H]2c3cc4c(cc3[C@@H](O[C@@H]3O[C@@H]5CO[C@@H](C)O[C@H]5[C@H](O)[C@H]3O)[C@H]3COC(=O)[C@H]23)OCO4)cc(OC)c1O [Etoposide] (drug 10000 nM) | -4.44 | 27.7 | -7.49 | 42.1 | 7.25 | 32.5 | 19.4 | 23 | 14 | 8.22 | 12.7 | 46.7 | 15.7 | -2.1 | 15.5
Cc1cnc(NC(=O)Nc2cc(Br)c(C)cc2OC[C@@H]2CNCCO2)cn1 (drug 1000 nM) | -10.6 | 0.148 | -6.01 | -0.37 | -5.37 | -7.46 | -6.55 | -1.46 | 5 | 26.1 | 16.2 | -9.68 | -8.57 | -4.01 | -1.67
Cn1cnc2c(F)c(Nc3ccc(Br)cc3Cl)c(C(=O)NOCCO)cc21 [Selumetinib  (AZD6244)] (drug 10000 nM) | -0.443 | 29.7 | -2.62 | 19.9 | 10.8 | -8.87 | -4.69 | 2.2 | 21.1 | 13.7 | 16.6 | -3.23 | -12.3 | 11.7 | 3.53
NCC(=O)CCC(=O)O [Aminolevulinic acid] (drug 10000 nM) | -15.6 | -12.3 | -2.75 | -0.747 | 5.5 | -15.3 | -7.45 | -7.01 | 4.33 | -30.6 | 7.57 | -13.1 | -10.6 | -9.27 | -5.25
Cn1nnc2c(C(N)=O)ncn2c1=O [Temozolomide] (drug 10000 nM) | -5.95 | 22.9 | -6.27 | 1.44 | -13 | 11.9 | -5.2 | 6.09 | 19.9 | -13.8 | -0.417 | 0.803 | 1.13 | 1.07 | 0.839
Cc1cc2c(F)c(Oc3ncnn4cc(OC[C@@H](C)O)c(C)c34)ccc2[nH]1 [Brivanib] (drug 1000 nM) | -13 | -17.5 | 7.57 | 2.73 | -3.24 | -7.74 | -7.64 | -6.33 | 6.47 | -12.6 | -7.3 | -14.5 | -3.49 | -13 | 3.72
Nc1nc(=O)c2c([nH]1)NCC(CNc1ccc(C(=O)N[C@@H](CCC(=O)O)C(=O)O)cc1)N2C=O (mixture of isomers) [Folinic acid] (drug 990000 nM) | 1.3 | -8.34 | 3.09 | -0.031 | -14.6 | 3.64 | -3.47 | 1.59 | 3.17 | 0.626 | 3.23 | 3.41 | -2.78 | -1.58 | 5.23
C=CC(=O)Nc1cc2c(Nc3ccc(F)c(Cl)c3)ncnc2cc1OCCCN1CCOCC1 [Canertinib] (drug 10000 nM) | 80.1 | 92.3 | 93.5 | 46.6 | 63.2 | 41.4 | 35.5 | 37.1 | 90 | 64.2 | 71.1 | 38.9 | 24.2 | 28 | 44.3
CC1=C2C[C@H]3[C@@H](CC=C4C[C@@H](O)CC[C@@]43C)[C@@H]2CC[C@]12O[C@@H]1C[C@H](C)CN[C@H]1[C@H]2C [Cyclopamine] (drug 10000 nM) | -4.32 | -7.93 | -2.39 | -2.15 | 1.98 | -9.96 | -4.21 | -2.07 | 0.632 | -20.5 | -1.78 | -17.5 | -14 | -8.03 | -6.35
Cn1cc(C2=C(c3cn(C4CCN(Cc5ccccn5)CC4)c4ccccc34)C(=O)NC2=O)c2ccccc21 [Enzastaurin] (drug 10000 nM) | -3.38 | -20.9 | -1.15 | -9.95 | -0.917 | -10.7 | -19.1 | 1.19 | -11.4 | -11 | -13.8 | -15.8 | -13.2 | -11.6 | -0.91
CCCCCOC(=O)Nc1nc(=O)n([C@@H]2O[C@H](C)[C@@H](O)[C@H]2O)cc1F [Capecitabine] (drug 10000 nM) | -9.89 | -7.23 | -6.54 | 1.61 | 2.81 | 24.8 | 0.654 | 11.1 | 0.103 | -4.69 | -0.939 | -17.6 | -17 | -12 | 7.55
CN(Cc1cnc2nc(N)nc(N)c2n1)c1ccc(C(=O)N[C@@H](CCC(=O)O)C(=O)O)cc1 [Methotrexate] (drug 10000 nM) | -11.3 | -21.2 | 2.17 | -0.232 | 6.27 | 22.8 | 2.09 | 15.9 | -17.3 | 18.8 | 29.1 | -7.44 | -4.13 | 14.2 | 10.5
CO[C@H]1C[C@@H]2CC[C@@H](C)[C@@](O)(O2)C(=O)C(=O)N2CCCC[C@H]2C(=O)O[C@H]([C@H](C)C[C@@H]2CC[C@@H](OC(=O)C(C)(CO)CO)[C@H](OC)C2)CC(=O)[C@H](C)/C=C(\C)[C@@H](O)[C@@H](OC)C(=O)[C@H](C)C[C@H](C)/C=C/C=C/C=C/1C [Temsirolimus] (drug 100 nM) | 8.72 | 3.21 | 14.5 | 31.8 | 24 | 33.7 | 28.7 | 30.5 | 20.6 | 40.1 | 35.9 | 26.7 | 13.2 | 10.6 | 36.2
S=c1[nH]cnc2nc[nH]c12 [Mercaptopurine] (drug 10000 nM) | 3.7 | 13.8 | 6.87 | 11.9 | 12.1 | 39.5 | 6.71 | 35.5 | 3.48 | 18.1 | 27.8 | 3.17 | -0.759 | 11.9 | 18
CC1(C)CNc2cc(NC(=O)c3cccnc3NCc3ccncc3)ccc21 [Motesanib  (AMG-706)] (drug 10000 nM) | -7.25 | -16.2 | -2.84 | 9.4 | 12.6 | -8.12 | -2.93 | -1.35 | -2.75 | -2.53 | 1.3 | -15.1 | -10.7 | -1.95 | -1.27
Nc1ccccc1NC(=O)c1ccc(CNc2nccc(-c3cccnc3)n2)cc1 [Mocetotinostat (MGCD0103)] (drug 10000 nM) | 65.7 | 94.3 | 83.4 | 52.9 | 41.7 | 32.8 | 23.3 | 27.6 | 95.4 | 80.1 | 62.7 | 81.2 | 73.8 | 15.4 | 31
CCS(=O)(=O)c1cccc(-c2cc(C(=O)NC3CCN(C)CC3)c(C)c3[nH]c4ncc(C)cc4c23)c1 [TAK-901] (drug 1000 nM) | -6.02 | 30.4 | 25.1 | 66.5 | 34.6 | -12.6 | -15.9 | -9.15 | 30.7 | 16.5 | 24.8 | 40.7 | 18.2 | 9.8 | -10.7
CN(C)C/C=C/C(=O)Nc1cc2c(Nc3ccc(F)c(Cl)c3)ncnc2cc1O[C@H]1CCOC1 [Afatinib (BIBW2992, Tovok)] (drug 1000 nM) | 82.2 | 93.8 | 95.5 | 19.8 | 16.6 | -5.16 | 1.48 | 0.501 | 95.9 | -11.5 | 19 | 0.755 | -3.23 | -0.193 | -3.77
CC(C)(C#N)c1cc(Cn2cncn2)cc(C(C)(C)C#N)c1 [Anastrozole] (drug 10000 nM) | -8.01 | -8.68 | -3.02 | -5.37 | 2.94 | -9.38 | -3.76 | -5.43 | -0.566 | -4.15 | -2.23 | -9.21 | -3.66 | -5.71 | -10.2
O=C(Nc1ccncc1)C(=O)c1cn(Cc2ccc(Cl)cc2)c2ccccc12 [Indibulin] (drug 10000 nM) | 7.67 | 28.2 | 8.07 | 13 | 4.46 | 9.44 | -3.66 | 10.6 | 7.16 | 36.4 | 33.7 | 2.62 | 12 | -9.03 | 11.1
CN(N=O)C(=O)N[C@@H](C=O)[C@@H](O)[C@H](O)[C@H](O)CO [Streptozocin] (drug 10000 nM) | -7.13 | 3.07 | -7.21 | -3.33 | 9.65 | -9.82 | 2.7 | 1.17 | -7.72 | -9.93 | -7.59 | -10.8 | -3.95 | -3.41 | -12.2
C/C(=C\c1csc(C)n1)[C@@H]1C[C@@H]2O[C@]2(C)CCC[C@H](C)[C@H](O)[C@@H](C)C(=O)C(C)(C)[C@@H](O)CC(=O)N1 [Ixabepilone] (drug 1000 nM) | -8.54 | 41 | -14.8 | 30 | 33.3 | -11.9 | -5.49 | -3.74 | 4.12 | 33.8 | 26.2 | 45.1 | 23 | -16.3 | -5.09
O=C(Cc1ccc(-c2ccc(OCCN3CCOCC3)cc2)cn1)NCc1ccccc1 [KX2-391] (drug 10000 nM) | 41 | 82.9 | 92.2 | 74.1 | 47.3 | 41.1 | 38.6 | 43.1 | 92.7 | 44.4 | 55.3 | 24.2 | 25.3 | 16.8 | 47.8
O=C(CCCCCCC(=O)Nc1ccccc1)NO [Vorinostat] (drug 10000 nM) | 76.5 | 92.9 | 86.8 | 58.5 | 41.9 | 37.5 | 32.9 | 38.9 | 91.2 | 83.5 | 80.9 | 87.5 | 88.9 | 23.1 | 37.8
Nc1ncn([C@H]2C[C@H](O)[C@@H](CO)O2)c(=O)n1 [Decitabine (Dacogen)] (drug 10000 nM) | -1.68 | -2.07 | -4.48 | -9.55 | -3.18 | -8.36 | -6.99 | -4.61 | -15.7 | 17.6 | 2.36 | -15 | -11.2 | -12.3 | -2.91
Cc1nc(Nc2ncc(C(=O)Nc3c(C)cccc3Cl)s2)cc(N2CCN(CCO)CC2)n1 [Dasatinib] (drug 1000 nM) |  | 1.98 and 3.29 |  | 35.9 and 30.8 | 35.6 and 31.4 | -61.6 and -72.5 | -39.5 and -41.9 | -34.5 and -23.8 | 37.1 and 33.4 |  | 12.7 and 8.15 |  | 30.8 and 16.6 |  | -36.2 and -32.2
